Assay results taken from US8362000B2, “Azetidinyl diamides as monoacylglycerol lipase inhibitors” (Janssen Pharmaceutica NV, priority 2009, dated 2013).
Where a chain is given by its changes, count along the chain named. pIC50, pKd: −log10 of the molar value. Read-outs that look alike come from different tables or passages of the source.

Experiments:
[1] = molecular target: T1, purified wild type MGL (wt-MGLL 6H-11-313) (Homo sapiens, UniProt Q99685)
T1 sequence (Q99685 1-303): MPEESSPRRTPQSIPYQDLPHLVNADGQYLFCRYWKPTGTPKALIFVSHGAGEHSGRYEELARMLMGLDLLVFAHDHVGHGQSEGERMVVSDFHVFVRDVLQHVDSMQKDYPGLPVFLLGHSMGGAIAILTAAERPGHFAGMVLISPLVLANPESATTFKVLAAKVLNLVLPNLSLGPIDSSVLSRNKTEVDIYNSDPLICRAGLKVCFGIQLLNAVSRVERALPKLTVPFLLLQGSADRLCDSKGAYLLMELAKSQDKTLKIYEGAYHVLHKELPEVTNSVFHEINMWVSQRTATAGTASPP

MGL = molecular target: T2, MGL (Rattus norvegicus, UniProt Q8R431); experiment: 2-AG accumulation assay in rat brain homogenate; assay type: biochemical; details: rat brain homogenate, 2-AG accumulation as percent of vehicle; for 2-AG accumulation, % of vehicle control at 0.1 µM: compound 0.1 μM, read-out: Rat Brain 2AG % VehCntrl (%) @ 0.1 μM; for 2-AG accumulation, % of vehicle control at 1 µM: read-out: Rat Brain 2AG % VehCntrl (%) @ 1 μM; for 2-AG accumulation, % of vehicle control at 10 µM: compound 10 μM, read-out: Rat Brain 2AG % VehCntrl (%) @ 10 μM; for 2-AG accumulation, % of vehicle control at 0.01 µM: compound 0.01 μM, read-out: Rat Brain 2AG % VehCntrl (%) @ 0.01 μM
T2 construct: one g rat brain was homogenized using a Polytron homogenizer; from tissue; host or cells: rat brain homogenate
T2 sequence (Q8R431 1-303): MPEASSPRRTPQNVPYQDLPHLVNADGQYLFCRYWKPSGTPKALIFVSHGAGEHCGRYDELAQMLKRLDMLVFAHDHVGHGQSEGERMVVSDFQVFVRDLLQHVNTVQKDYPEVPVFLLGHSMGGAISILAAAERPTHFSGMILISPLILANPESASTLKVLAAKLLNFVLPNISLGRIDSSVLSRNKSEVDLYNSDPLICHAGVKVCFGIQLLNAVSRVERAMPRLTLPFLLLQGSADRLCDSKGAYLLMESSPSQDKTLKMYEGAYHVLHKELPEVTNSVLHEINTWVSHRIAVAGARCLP

[2] = system: CFA-induced paw radiant heat hypersensitivity; experiment: CFA-induced paw radiant heat hypersensitivity; assay type: in vivo, rat; details: 30 mg/kg p.o., HPβCD, last time point 180 or 300 min; for inhibition in vivo at 30 mg/kg: Rattus norvegicus, po
Experimental: Each rat was placed in a test chamber on a warm glass surface and allowed to acclimate for approximately 10 min. A radiant thermal stimulus (beam of light) was then focused through the glass onto the plantar surface of each hind paw in turn. The thermal stimulus was automatically shut off by a photoelectric relay when the paw was moved or when the cut-off time was reached (20 sec for radiant heat at ˜5 amps). An initial (baseline) response latency to the thermal stimulus was recorded for each animal prior to the injection of complete Freund's adjuvant (CFA). […] Immediately following the post-CFA latency assessment, the indicated test compound or vehicle was administered orally.
The percent reversal (% R) of hypersensitivity was calculated in one of two different ways: 1) using group mean values or 2) using individual animal values. More specifically:
Method 2. For some compounds, the % R of hypersensitivity was calculated separately for each animal according to the following formula: % reversal=[(individual treatment response−individual CFA response)/(individual baseline response−individual CFA response)]×100. Results are given as a mean of the maximum % reversal values calculated for each individual animal.

mutant MGL = molecular target: T3, mutant MGL (Homo sapiens, UniProt Q99685, L169S/L176S); experiment: MGL ThermoFluor assay - mutant; assay type: binding; details: for Kd: ThermoFluor, read-out: MGL mutant ThermoFluor qKd (μM) (using qNMR conc.)
T3 sequence (Q99685 1-303 L169S/L176S): T1 sequence (Q99685 1-303) with L169S, L176S

[3] = group mean values, read-out: CFA thermal hypersensitivity Method 1: peak % reversal
[4] = individual animal values, read-out: CFA thermal hypersensitivity Method 2: peak % reversal
[5] = ThermoFluor concentration-response, read-out: MGL mutant ThermoFluor Kd
[6] = ThermoFluor thermal stability binding assay, read-out: MGL mutant ThermoFluor Kd
[7] = compound concentration measured by qNMR

Row | Structure (SMILES) | pIC50 [1] | 2-AG accumulation, % of vehicle control at 0.1 µM (MGL) [%] | 2-AG accumulation, % of vehicle control at 1 µM (MGL; compound 1 μM) [%] | 2-AG accumulation, % of vehicle control at 10 µM (MGL) [%] | pKd (mutant MGL; [5]) | pKd (mutant MGL; [6]) | Kd (mutant MGL; [7]) [µM] | 2-AG accumulation, % of vehicle control at 0.01 µM (MGL) [%] | inhibition in vivo at 30 mg/kg [2, 3] [%] | inhibition in vivo at 30 mg/kg [2, 4] [%] | Rat Brain 2AG % VehCntrl (%) @ 1 μM (MGL; compound 1 μM) [%] | CFA thermal hypersensitivity Method 1: peak % reversal ([2]; group mean values) [%] | pKd (mutant MGL; MGL mutant ThermoFluor Kd, ThermoFluor concentration-response) | pKd (mutant MGL; MGL mutant ThermoFluor qKd (using qNMR conc.), compound concentration measured by qNMR)
1 | O=C(c1cscn1)N1CCN(C2CN(C(=O)c3ccc(-c4ccccc4)cc3F)C2)CC1 [Cpd 1108, 1-{1-[(3-Fluorobiphenyl-4-yl)carbonyl]azetidin-3-yl}-4-(1,3-thiazol-4-ylcarbonyl)piperazine] | 7.85 | 117 | 204 | 456 | 7.20 | – | – | – | 84.9 | 99.2 | – | – | – | –
2 | O=C(c1ccc2nc(-c3ccccc3)sc2c1)N1CC(N2CCN(C(=O)c3cscn3)CC2)C1 [Cpd 1187, 2-Phenyl-6-({3-[4-(1,3-thiazol-4-ylcarbonyl)piperazin-1-yl]azetidin-1-yl}carbonyl)-1,3-benzothiazole] | 7.04 | – | 319 | – | 6.71 | – | – | – | 16.3 | – | – | – | – | –
3 | C/C(=C\c1ccc(Cl)cc1)c1c(C)c(C(=O)N2CC(N3CCN(C(=O)c4nccs4)CC3)C2)nn1-c1ccc(Cl)cc1Cl [Cpd 1010] | > 8.30 | – | – | – | – | – | – | – | – | – | 1953 | 23.4 | 7.77 | 7.40
4 | O=C(c1ccc(-c2ccccc2)cc1)N1CC(N2CCN(C(=O)c3nccs3)CC2)C1 [Cpd 9, 1-[1-(Biphenyl-4-ylcarbonyl)azetidin-3-yl]-4-(1,3-thiazol-2-ylcarbonyl)piperazine] | 7.76 | 184 | 529 | – | 8.61 | – | – | 99 | 75.4 | 77.4 | – | – | – | –
5 | O=C(c1ccccc1)N1CCN(C2CN(C(=O)c3ccc(-c4ccc(Cl)c(Cl)c4)cc3)C2)CC1 [Cpd 39, 1-{1-[(3′,4′-Dichlorobiphenyl-4-yl)carbonyl]azetidin-3-yl}-4-(phenylcarbonyl)piperazine] | 7.83 | 173 | 168 | 277 | 7.60 | – | – | – | 39.1 | 39.7 | – | – | – | –
6 | O=C(c1ccccc1)N1CCN(C2CN(C(=O)c3ccc4c(-c5cccc(C(F)(F)F)c5)c[nH]c4c3)C2)CC1 [Cpd 572] | 7.51 | – | 397 | – | 7.52 | – | – | – | -5.1 | – | – | – | – | –
7 | Cc1cc(-c2ccccc2)ccc1C(=O)N1CC(N2CCN(C(=O)c3cscn3)CC2)C1 [Cpd 488, 1-{1-[(3-Methylbiphenyl-4-yl)carbonyl]azetidin-3-yl}-4-(1,3-thiazol-4-ylcarbonyl)piperazine] | 6.42 | 219 | 248 | 681 | – | 6.49 | – | – | 78 | 85.5 | – | – | – | –
8 | O=C(c1cscn1)N1CCN(C2CN(C(=O)c3sc4c(F)c(C(F)(F)F)ccc4c3Cl)C2)CC1 [Cpd 670] | 7.82 | – | 650 | – | – | 9.00 | 0.001 | – | 20.9 | – | – | – | – | –

More lines, main results first:

Row | pIC50 [1] | 2-AG accumulation, % of vehicle control at 0.1 µM (MGL) [%] | 2-AG accumulation, % of vehicle control at 1 µM (MGL; compound 1 μM) [%] | 2-AG accumulation, % of vehicle control at 10 µM (MGL) [%] | pKd (mutant MGL; [5]) | pKd (mutant MGL; [6]) | Kd (mutant MGL; [7]) [µM] | 2-AG accumulation, % of vehicle control at 0.01 µM (MGL) [%] | Structure (SMILES) | inhibition in vivo at 30 mg/kg [2, 3] [%] | inhibition in vivo at 30 mg/kg [2, 4] [%] | Rat Brain 2AG % VehCntrl (%) @ 1 μM (MGL; compound 1 μM) [%] | CFA thermal hypersensitivity Method 1: peak % reversal ([2]; group mean values) [%] | pKd (mutant MGL; MGL mutant ThermoFluor Kd, ThermoFluor concentration-response) | pKd (mutant MGL; MGL mutant ThermoFluor qKd (using qNMR conc.), compound concentration measured by qNMR)
9 | 8.08 | 148 | 525 | 856 | – | 8.04 | – | – | COc1cc(C(=O)N2CC(N3CCN(C(=O)c4cscn4)CC3)C2)ccc1-c1ccc(F)c(Cl)c1 [Cpd 261, 1-{1-[(3′-Chloro-4′-fluoro-2-methoxybiphenyl-4-yl)carbonyl]azetidin-3-yl}-4-(1,3-thiazol-4-ylcarbonyl)piperazine] | 26.4 | 27.5 | – | – | – | –
10 | 7.89 | – | 359 | – | – | 8.70 | 0.003 | – | O=C(c1cscn1)N1CCN(C2CN(C(=O)c3sc4cc(C(F)(F)F)c(F)cc4c3Cl)C2)CC1 [Cpd 666] | -3.1 | – | – | – | – | –
11 | 8.15 | – | 861 | – | 7.96 | – | – | – | O=C(c1cscn1)N1CCN(C2CN(C(=O)c3sc4cc(C(F)(F)F)ccc4c3F)C2)CC1 [Cpd 653] | -10.7 | – | – | – | – | –
12 | > 8.30 | – | 576 | – | 8.10 | – | – | – | O=C(c1ccc2c(cnn2-c2ccccc2)c1)N1CC(N2CCN(C(=O)c3nccs3)CC2)C1 [Cpd 1360, 1-Phenyl-5-({3-[4-(1,3-thiazol-2-ylcarbonyl)piperazin-1-yl]azetidin-1-yl}carbonyl)-1H-indazole] | 40.5 | 40.5 | – | – | – | –
13 | > 8.30 | 265 | 760 | 694 | – | 7.78 | – | 243 | O=C(c1cc2cc(C(F)(F)F)ccc2s1)N1CC(N2CCN(C(=O)c3nccs3)CC2)C1 [Cpd 316, 1-(1,3-Thiazol-2-ylcarbonyl)-4-(1-{[5-(trifluoromethyl)-1-benzothiophen-2-yl]carbonyl}azetidin-3-yl)piperazine] | 69.3 | 70.8 | – | – | – | –
14 | 8.05 | 235 | 790 | 950 | 7.98 | – | – | 119 | Cc1nc(-c2ccc(Cl)cc2)sc1C(=O)N1CC(N2CCN(C(=O)c3nccs3)CC2)C1 [Cpd 489, 1-(1-{[2-(4-Chlorophenyl)-4-methyl-1,3-thiazol-5-yl]carbonyl}azetidin-3-yl)-4-(1,3-thiazol-2-ylcarbonyl)piperazine] | 27.1 | 43.5 | – | – | – | –
